The subject of one data set is T. b. brucei. In words: T. b. brucei growth inhibition EC50 assay (resazurin, 72 h). It counts as cell-based, Trypanosoma brucei brucei Lister 427. As to conditions: for EC50: Trypanosoma brucei. On the procedure: Mid-log phase growth T. b. brucei was diluted to a working cell density of 2,750 cells/mL and 90 μL/well dispensed into 96-well flat-bottom transparent assay plates (Nunc). Ten μL/well from intermediate plates were added. The final top concentration of compounds was 40 μM in 0.4% DMSO per well.
Assay plates were incubated for 72 h at 37°C and 5% CO2. Four hours prior to the end of the incubation, 20 μL of a 440 μM resazurin solution in prewarmed HMI-9 was added to each well and incubated for another 4 h. Fluorescence was then measured in an Infinite F200 plate reader (Tecan) at 550 nm (excitation filter) and 590 nm (emission filter). A 4-parameter equation was employed to fit the dose-response curves and determine of EC50 using the SigmaPlot 13.0 software. Assays were performed in duplicate at least twice, to achieve a minimal n = 3 per dose response.
Bloodstream Trypanosoma brucei brucei Lister 427 was cultured in Hirumi’s modified Iscove’s medium (HMI-9), supplemented with 10% heat-inactivated FBS, at 37 °C and 5% CO2 in T-25 vented flask (Corning®).
For dose-response experiments, compound plates were prepared for each analogue by serial 3-fold dilutions in 100% DMSO. Five concentration points (mammalian cytotoxicity) or ten concentration points (parasite growth inhibition), were made in 96-well transparent Nunclon plates. Pentamidine is routinely included in compound plates as internal quality control, and plates are stored sealed at -20 °C for no more than four weeks.

The next data set concerns MRC5-SV2 cell line. In words: Cytotoxicity assay in MRC5 (resazurin, 48 h). It counts as cell-based, human. As to conditions: MRC5 toxicity. On the procedure:
For dose-response experiments, compound plates were prepared for each analogue by serial 3-fold dilutions in 100% DMSO. Five concentration points (mammalian cytotoxicity) or ten concentration points (parasite growth inhibition), were made in 96-well transparent Nunclon plates. Pentamidine is routinely included in compound plates as internal quality control, and plates are stored sealed at -20 °C for no more than four weeks. Intermediate plates were made as described, adding 95 μL of DMEM complete media to 5 μL of compound per well setting a 5% DMSO amount. Log-phase MRC5 cells were removed from a T-75 TC flask using TrypLE® Express (Thermo®) and dispersed by gentle pipetting. Cell density was adjusted to working concentration in prewarmed DMEM medium: 25,000 cells in 90 μL of culture were plated in 96-well transparent Nunclon plates and let to settle for 24 h at 37 °C and 5% CO2. After settling incubation, 10 μL of fresh made intermediate plate were added per well: final maximal concentration for compounds was 50 μM in 0.5% DMSO per well. […] Fluorescence was read in an Infinite F200 plate reader (Tecan®) at 550 nm (excitation filter) and 590 nm (emission filter). A 4-parameter equation was used to fit the dose-response curves and determination of EC50 by SigmaPlot ® 13.0 software. Assays were performed in duplicate at least twice for positive compounds, to achieve a minimal n=3 per dose response.

Another data set has as its system L. donovani. In words: EC50 in L. donovani (infected THP-1 macrophages, luciferase). Type of data set: cell-based, Leishmania donovani MHOM/ET/67/HU3. As to conditions: Leishmania donovani, 72 h, read-out: L. donovani pEC50 (converted). As for the experimental part:
Leishmania donovani MHOM/ET/67/HU3 cells with the luciferase gene integrated into the parasite genome[1] were grown at 28 °C in RPMI 1640-modified medium (Invitrogen) supplemented with 20% FBS with […] of hygromycin B.
The Human myelomonocytic cell line THP-1 was grown at 37 °C and 5% CO2 in RPMI-1640 supplemented with 10% iFBS, 2 mM […], 100 U/mL penicillin and […] streptomycin. 3 x 10^4 THP-1 cells per well in 96-well plates were differentiated to macrophages with 20 ng/mL of PMA treatment for 48 h followed by 24 h of culture in fresh medium.
Macrophage-differentiated THP-1 cells were infected at a macrophage/parasite ratio of 1/10 with stationary L. donovani promastigotes for 24 h at 35 °C and 5% CO2, and extracellular parasites were removed by washing with PBS. Infected cell cultures were then incubated with different compounds concentrations at 37 °C for 72 h. Luminescence was measured using the Promega kit luciferase assay system (Promega, Madison, WI). Assays were performed in duplicate at least twice, to achieve a minimal n=3 per dose response.

A further data set relates to T. cruzi. In words: β-D-Galactosidase transgenic T. cruzi assay (amastigote-infected L6 cells). Type of data set: cell-based, T. cruzi Tulahuen C4 strain. As to conditions: Trypanosoma cruzi, 96 h, read-out: T. cruzi pEC50 (converted). On the procedure: The T. cruzi Tulahuen C4 strain, expressing the β-galactosidase gene (LacZ) and L6 rat skeletal muscle cells, used as host cells, were cultured in RPMI-1640 supplemented with 10% iFBS, 2 mM L-glutamine, 100 U/mL penicillin, and 100 μg/mL streptomycin at 37 °C and 5% CO2.
A Thermo Scientific Multidrop Combi dispenser (MTX Lab Systems, Vienna, VA) was used to dispense 90 μL of T. cruzi amastigote–infected L6 cell culture (4×10^3 infected L6 cells per well) into 96-well Corning assay plates (Corning Inc., Corning, NY) already containing 10 μL of the compounds to be screened and controls. The plates were incubated at 37 °C for 96 h. Then, 30 μL of 100 μM CPRG and 0.1% NP40 diluted in PBS were added to each well, and the plates were incubated for 4 h at 37 °C in the dark. Absorbance at 585 nm was measured in a Vmax kinetic microplate reader ([…]). Compound activities were normalized using the in-plate negative (benznidazole at 10 μg/mL) and positive (0.2% DMSO) growth controls.

Data set [1] in a line: Aqueous pH 7.4 solubility. As to conditions: pH 7.4 phosphate buffer, 25 °C, 20-24 h, read-out: Aq. Solubility. Type of data set: physicochemical. On the procedure: Compounds are dried down from 10 mM DMSO solutions using centrifugal evaporation technique. Phosphate buffer (0.1 M pH 7.4) added and StirStix inserted in the glass vials, shaking is then performed at a constant temperature of 25 °C for 20-24 h. This step is followed by double centrifugation with a tip wash in between, to ensure that no residues of the dried compound are interfering. The solutions are diluted before analysis and quantification using LC/MS/MS is performed.

A short description of another data set: Rat hepatocyte CLint. It counts as in vitro ADME. As to conditions: rat hepatocytes. On the procedure: In vitro intrinsic clearance determined from rat hepatocytes using a standard approach. Following incubation and preparation, the samples are analyzed using LC/MS/MS.
Data set [2] is described as follows: Human liver microsomal CLint. Type of data set: in vitro ADME. As to conditions: for microsomal CLint: human, liver microsomes, read-out: HLM Clint. On the procedure:
In vitro intrinsic clearance determined from human liver microsomes using a standard approach. Following incubation and preparation, the samples are analyzed using LC/MS/MS.
Background: Liver microsomes are a subcellular fraction often used to study metabolism.

Data set [3] in a line: Human plasma protein binding (equilibrium dialysis). As to conditions: pH 7.4, read-out: PPB (converted). Type of data set: in vitro ADME. On the procedure:
PPB is determined using equilibrium dialysis (RED device) to separate free from bound compound. The amount of compound in plasma (10 µM initial concentration) and in dialysis buffer (pH 7.4 phosphate buffer) is measured by LC-MS/MS after equilibration at 37 °C in a dialysis chamber. The fraction unbound (fu) is reported.

Where [4] appears, read: 72 h, resazurin, error within ±0.20 (Table 2) or ±0.08 (Table 3) log units, read-out: T.b.b. pEC50 (converted).
Setting [5] is: aqueous buffer, thermodynamic from solid.

As a reminder, the solubility is the concentration that dissolves in the medium under given conditions. A word on the hepatocyte CLint: it is the rate of metabolic loss divided by the concentration.

Values after ≈ are worked out from the molar mass of the structure shown. Read-outs that look alike come from different tables or passages of the source. Bounds are passed on as bounds.

Consider `CN(C)S(=O)(=O)c1ccc(N/N=C2\C(=O)Nc3ccccc32)cc1` [NEU-2118, (Z)-N,N-Dimethyl-4-(2-(2-oxoindolin-3-ylidene)hydrazinyl)benzenesulfonamide], for which the EC50 with T. b. brucei (setting [4]) was 1580 nM; in the data set on L. donovani, above 10000 nM; in the data set on T. cruzi it was above 10000 nM. In addition, the “MRC5 pTC50” value with MRC5-SV2 cell line is given as below 4.3. In data set [1] (setting [5]), the solubility was below 1 µM. In the data set “Rat hepatocyte CLint”, the hepatocyte CLint is 146 µL/min/1e6 cells. Further, the microsomal CLint in data set [2] was 38.2 µL/min/mg. In addition, in data set [3], the fraction unbound at 10 µM is 0.01.

As for `CNS(=O)(=O)c1ccc(N/N=C2\C(=O)Nc3ccccc32)cc1` [NEU-2124, (Z)-N-Methyl-4-(2-(2-oxoindolin-3-ylidene)hydrazinyl)benzenesulfonamide], the figures for the EC50 in the data set with T. b. brucei (setting [4]), in the data set on L. donovani and with T. cruzi were 5010 nM, above 10000 nM and above 10000 nM, respectively. The “MRC5 pTC50” value in the data set with MRC5-SV2 cell line is given as below 4.3. For the same compound, the solubility was below 39 µM in data set [1] (setting [5]) and above 10 µM in data set [1]. In “Rat hepatocyte CLint”, the hepatocyte CLint came to 36.4 µL/min/1e6 cells. In data set [2], the microsomal CLint stood at 20.3 µL/min/mg. Besides, the fraction unbound at 10 µM in data set [3] is 0.02.

As to `CNS(=O)(=O)c1ccc(N/N=C2\C(=O)Nc3cccc(C=C(C)C)c32)cc1` [NEU-4391, (Z)-N-Methyl-4-(2-(4-(2-methylprop-1-en-1-yl)-2-oxoindolin-3-ylidene)hydrazinyl)benzenesulfonamide], in the data set with T. b. brucei, the “activity against T. brucei” value is listed as “sub-micromolar activity”. Moreover, the EC50 in the data set on T. b. brucei (setting [4]) is 158 nM; in the data set with T. b. brucei (T. brucei, read-out: EC50) it was 84 nM; in the data set on L. donovani it was above 5010 nM; in the data set on T. cruzi, 2240 nM. Also, in the data set on MRC5-SV2 cell line, the “MRC5 pTC50” value is recorded as below 4.3. In addition, the solubility in data set [1] worked out at 4 µM (≈ 1.54 µg/mL). The hepatocyte CLint in the data set “Rat hepatocyte CLint” was found to be 103 µL/min/1e6 cells. The “HLM Clint” value in data set [2] (human liver microsomes) is 8.63 µL/min/mg. Besides, the microsomal CLint in data set [2] amounted to 8.6 µL/min/mg. Moreover, the fraction unbound at 10 µM in data set [3] is below 0.04.

For the origin of these results see publication PMC6383948, “Evaluation of a class of isatinoids identified from a high-throughput screen of human kinase inhibitors as anti-Sleeping Sickness agents” (PLoS Neglected Tropical Diseases, 2019).
